# Assay results: patent US5104859A, “Continuous administration of adenosine to reduce pulmonary vascular resistance” (priority 1990, dated 1992)
# Entries after “also recorded” stand apart in the source; their conditions may differ. Read-outs that look alike come from different tables or passages of the source.
# Columns and labels:
# [1] = Plasma adenosine and metabolite concentrations during cardiopulmonary bypass (HPLC); settings: for concentration: read-out: Venous concentration, 20 min
# Description: In six cases the plasma adenosine levels were determined by high performance liquid chromatography (HPLC) (Fredholm and Sollevi, J. Physiol. (London), 313: 351-67 (1981) in arterial and in venous (venous lines to the oxygenator) blood. The adenosine metabolites inosine, hypoxanthine and uric acid were also determined by HPLC. The samples were collected as previously described (Sollevi, Acta. Physiol. Scand., 121: 165-72 (1984) at the intervals of 10, 20, 40 and 80 minutes during CPB and 20 minutes after CPB.
# Statistical significance (controls v. adenosine group) was determinted with Student's t-test for unpaired data. For significance within the groups the Wilcoxon Rank Sum test was used. p […] 0.05 was regarded as significant.
# [2] = Purine levels in arterial plasma before, during and after adenosine-induced controlled hypotension (HPLC); settings: for concentration: Table I, mean ± SEM
# Description: (§1) Blood gases were measured with appropriate electrodes for pH, PCO2, and PO2 (Radiometer, Copenhagen). The hemoglobin concentration was determined spectrophotometrically. Samples for the determination of adenosine and its metabolites were collected as described by Sollevi et al., Acta Physiol. Scand., 120: 171-76 (1984). Adenosine and inosine were purified and analyzed by HPLC as described by Fredholm and Sollevi., J. Physiol. (London), 313: 351-67 (1981). Hypoxanthine, xanthine, and uric acid were analyzed by HPLC according to the method of Schweinsberg and Loo., J. Chromatogr., 181: 103-7 (1980). Arterial levels of dipyridamole were determined by HPLC. J. Chromatogr., 162: 98-103 (1979). Blood lactate was measured according to Tfelt-Hansen and Siggard-Andersen. Scand. Clin. Lab. Invest., 27:15-19 (1971).
# (§2) Measurements and blood samplings were performed immediately before hypotension, as late as possible during hypotension (1-5 min before terminating the infusion) and approximately 30 min after the hypotensive period.
# (§3) Dipyridamole (5 mg. per ml) was infused iv (0.3-0.4 mg. per kg. over a period of 5-10 min) approximately 20 minutes prior to the induction of controlled hypotension. […] (See Pedersen, J. Chromatogr., 162: 98-103 (1979).
# (§4) The infusion was started at a rate of 0.01 mg. per kg. per minute, which was doubled at 15 second intervals until the desired MABP level of 40-50 mmHg was reached. […] Serum creatinine was determined before and on two consecutive days after operation. The standard ECG was recorded the day before and the day after operation.
# (§5) The statistical significance (control 1 vs. adenosine and control 1 vs. control 2) was determined by Student's t test for paired data. A P value of <0.05 was regarded as significant.
# The purine levels of nine of the patients were determined prior to, during and after adenosine-induced controlled hypotension.
# [3] = test system: systemic arterial blood pressure and central hemodynamics; test: Controlled hypotension during anesthesia: central hemodynamics (dipyridamole-pretreated cerebral aneurysm surgery patients); settings: in five of the patients
# Description: One hour before the operation the patients were premedicated orally with diazepam (10-20 mg.) Atropine (0.5 mg) and droperidol (0.1 mg. per kg.) were given intravenously before induction of anesthesia. Induction was started with thiopental (5 mg. per kg) followed by phenoperidine (1-2 mg), a synthetic opiate with pharmacodymanics resembling fentanyl but with a longer duration of action and 1/10 of its analgesic potency.
# Pancuronium bromide (0.1 mg per kg) was given to facilitate endotracheal intubation. Anesthesia was maintained by supplementary doses of phenoperidine and droperidol, as required. […] Phenoperidine was supplemented regularly to prevent the blood pressure from exceeding the preanesthetic level (approx. 1 mg/30-60 min). Controlled hyperventilation was employed with a humidified gas mixture of 60% N2 O in oxygen to maintain PaCO2 values at approximately 30 mmHg (±1.5/SEM). Mannitol (1-1.5 g. per kg) was given routinely at the start of the operation (e.g., 1-2 hours prior to the controlled hypotension). The patients were operated on in the horizontal supine position.
# A 1.2-mm plastic cannula was introduced into the left radial artery to monitor systemic arterial blood pressure (MABP) and collect arterial blood. A balloon-tipped, flow-directed, quadruple lumen Swan-Ganz catheter (Model 93A-831-7.5 F, VIP) was inserted percutaneously via the left basilic vein, and its correct position in the pulmonary artery was determined by pressure tracings. The catheter was used for the monitoring of mean right atrial pressure (RAP), mean pulmonary artery pressure (PAP), and mean pulmonary capillary wedge pressure (PCWP) for the determination of cardiac output and collection of mixed venous blood and for the infusion of adenosine. Another plastic cannula was introduced percutaneously, in a retrograde direction, into the right jugular bulb for the collection of blood. The correct position was verified by x-ray.
# The ECG was monitored with a standard chest (V5) lead. Heart rate was determined from the R-R interval. Blood pressures were measured by transducers placed at the midthoracic level. Cardiac output (QT) was determined in triplicate according to the thermodilution technique with a cardiac output computer (Edwards Lab, model 9510). Isotonic glucose, 10 ml at 1° C., was used as a thermal indicator. The ECG, heart rate, blood pressures, and thermodilution curves were recorded on a Grass® polygraph.
# as §2, §3, §4
# Systemic vascular resistance (SVR) was derived from the formula [formula] and pulmonary vascular resistance (PVR) from the formula [formula]
# as §5
# heart muscle = settings: injection; cited from earlier work
# [4] = Plasma level of dipyridamole (HPLC); type: in vivo, human; settings: 0.3-0.4 mg/kg iv over 5-10 min; SEM; read-out: dipyridamole plasma level during hypotensive periods
# Description: as §1, §3
# [5] = test system: mean arterial blood pressure; settings: dipyridamole 1 mg/kg, dogs; cited from earlier work
# [6] = test system: adenosine uptake by red blood cells; settings: cited from earlier work
# cardiovascular system = settings: cited from earlier work
# myocardial blood flow = settings: investigated in abdominal vascular surgery; words; cited from earlier work
# [7] = CPB 10', adenosine infusion 0.1 mg/kg/min, n = 6
# [8] = CPB 20', adenosine infusion 0.1 mg/kg/min, n = 6
# [9] = CPB 40', adenosine infusion 0.1 mg/kg/min, n = 6
# [10] = CPB 80', adenosine infusion 0.1 mg/kg/min, n = 6
# [11] = human, venous plasma, iv, 0.1 mg/kg/min, Venous concentration
# [12] = during / after adenosine infusion, in words
# [13] = read-out: Purine level in arterial plasma, after hypotension, 20-40 min, 20-40 min after hypotension
# [14] = read-out: Purine level in arterial plasma, during hypotension, during i.v. adenosine infusion, dipyridamole-pretreated
structure (smiles),measurement,setting,value
"O=c1[nH]cnc2nc[nH]c12 [Hypoxanthine, hypoxanthine]",Arterial concentration,[1]; in vivo,4.2 ± 0.9 µM
same,change of adenosine metabolite levels,[2]; in vivo,increased during the infusion
"OC[C@H]1O[C@@H](n2cnc3c(O)ncnc32)[C@H](O)[C@@H]1O [Inosine, inosine]",Arterial concentration,"[1]; 20' post CPB, n = 6",0.4 ± 0.1 µM
same,Arterial concentration,[1]; [7],1.3 ± 0.7 µM
same,Arterial concentration,[1]; [8],2.5 ± 1.0 µM
same,Arterial concentration,[1]; [9],1.2 ± 0.3 µM
same,Arterial concentration,[1]; [10],1.4 ± 0.4 µM
same,concentration at 10 min,[1]; [11],900 ± 300 nM
same,concentration at 40 min,[1]; [11],1600 ± 500 nM
same,concentration at 80 min,[1]; [11],1600 ± 400 nM
same,metabolite elevation during infusion,[1]; in vivo,consistently elevated
same,concentration,"[1]; 20' post CPB, n = 6",400 ± 100 nM
same,concentration,[1]; [8],2400 ± 1200 nM
same,change of adenosine metabolite levels,[2]; [12],remained slightly above basal levels 20-40 minutes after the infusion
same,change of adenosine metabolite levels,"[2]; during / after adenosine infusion, in words, listed as inosine",increased during the infusion
same,concentration,"[2]; read-out: Purine level in arterial plasma, after hypotension, 3-9 min, 3-9 min after hypotension",690 ± 260 nM
same,concentration,[2]; [13],290 ± 150 nM
same,concentration,[2]; [14],3010 ± 1480 nM
"O=c1[nH]c(=O)c2[nH]c(=O)[nH]c2[nH]1 [Uric Acid, uric acid]",Arterial concentration,"[1]; 20' post CPB, n = 6",260 ± 34 µM
same,Arterial concentration,[1]; [7],260 ± 32 µM
same,Arterial concentration,[1]; [8],269 ± 35 µM
same,Arterial concentration,[1]; [9],250 ± 32 µM
same,Arterial concentration,[1]; [10],249 ± 30 µM
same,change of adenosine metabolite levels,[2]; [12],unaffected
same,concentration,[2]; [13],200000 ± 28800 nM
same,concentration,[2]; [14],198000 ± 22700 nM
"O=c1[nH]c(=O)c2[nH]cnc2[nH]1 [Xanthine, xanthine]",change of adenosine metabolite levels,[2]; in vivo,unaffected
OCCN(CCO)c1nc(N2CCCCC2)c2nc(N(CCO)CCO)nc(N3CCCCC3)c2n1 [dipyridamole],decrease of MABP by dipyridamole infusion,[3],approximately 10 mmHg
same,redistribution of flow within heart muscle,heart muscle,augment the redistribution of flow within the heart muscle
same,concentration,[4],1200 ± 300 nM
same,reduction of mean arterial blood pressure by dipyridamole,[5],20%
same,adenosine uptake inhibition,[6],inhibiting cellular uptake of adenosine
same,adenosine uptake inhibition,[6]; listed as Dipryridamol,adenosine uptake inhibitor
NNc1nncc2ccccc12 [hydralazine],heart rate,cardiovascular system; in vivo,increase heart rate
FC(F)OC(Cl)C(F)(F)F (stereo not drawn) [isoflurane],coronary flow / coronary blood flow,myocardial blood flow,no beneficial effect; also recorded: may reduce coronary blood flow
same,cardiac blood flow,cardiovascular system; in vivo,tendency to reduce cardiac blood flow
COc1cc2nc(N3CCN(C(=O)c4ccco4)CC3)nc(N)c2cc1OC [prazosin],heart rate,cardiovascular system; in vivo,increase heart rate
same,onset and predictability of action,cardiovascular system; in vivo,slow onset and unpredictable action
CCCCC[C@H](O)/C=C/[C@@H]1[C@H]2C/C(=C/CCCC(=O)O)O[C@H]2C[C@H]1O [prostacyclin],systemic vasodilation and hypotension,cardiovascular system; coronary bypass surgery,severe systemic vasodilation and hypotension
